Laboratory results published in patent publication US9125913B2, “Bcl-2-selective apoptosis-inducing agents for the treatment of cancer and immune diseases” (AbbVie Inc., priority 2008, dated 2015).

tested on: GST-Bcl-2; test: TR-FRET binding assay, Bcl-2; conditions: TR-FRET Ki values
Outline: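 Ki values come from Wang's competitive-binding equation applied to TR-FRET signal (excitation 340/35 nm; emission 520/525 nm F-Bak peptide, 495/510 nm Tb antibody). Protein, probe and antibody incubated with compound 3 h at room temperature; dilution series began at 50 μM as 2× stock in 10% DMSO.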

| SMILES | Binding selectivity ratio (Bcl-XL Ki/Bcl-2 Ki) |
| --- | --- |
| CC1(C)CCC(CN2CCN(c3ccc(C(=O)NS(=O)(=O)c4ccc(NC5CCN(CCCC(F)(F)F)CC5)c([N+](=O)[O-])c4)c(Oc4ccc5[nH]ccc5c4)c3)CC2)=C(c2ccc(Cl)cc2)C1 [EXAMPLE 216, 4-(4-{[2-(4-chlorophenyl)-4,4-dimethylcyclohex-1-en-1-yl]methyl}piperazin-1-yl)-2-(1H-indol-5-yloxy)-N-[(3-nitro-4-{[1-(4,4,4-trifluorobutyl)piperidin-4-yl]amino}phenyl)sulfonyl]benzamide] | >1073.2 |
| CC1(C)CCC(CN2CCN(c3ccc(C(=O)NS(=O)(=O)c4ccc(NCC5(N)CCCCC5)c([N+](=O)[O-])c4)c(Oc4ccc5[nH]ccc5c4)c3)CC2)=C(c2ccc(Cl)cc2)C1 [EXAMPLE 250, N-[(4-{[(1-aminocyclohexyl)methyl]amino}-3-nitrophenyl)sulfonyl]-4-(4-{[2-(4-chlorophenyl)-4,4-dimethylcyclohex-1-en-1-yl]methyl}piperazin-1-yl)-2-(1H-indol-5-yloxy)benzamide] | 811 |
| CC1(C)CCC(CN2CCN(c3ccc(C(=O)NS(=O)(=O)c4ccc(NC5CCN(CCCC(F)(F)F)CC5)c([N+](=O)[O-])c4)c(Oc4cccc5[nH]ccc45)c3)CC2)=C(c2ccc(Cl)cc2)C1 [EXAMPLE 210, 4-(4-{[2-(4-chlorophenyl)-4,4-dimethylcyclohex-1-en-1-yl]methyl}piperazin-1-yl)-2-(1H-indol-4-yloxy)-N-[(3-nitro-4-{[1-(4,4,4-trifluorobutyl)piperidin-4-yl]amino}phenyl)sulfonyl]benzamide] | >1057.6 |
| CC1(C)CCC(CN2CCN(c3ccc(C(=O)NS(=O)(=O)c4ccc(NCC5CCOCC5)c(C#N)c4)c(Oc4cccc5[nH]ccc45)c3)CC2)=C(c2ccc(Cl)cc2)C1 [EXAMPLE 366, 4-(4-{[2-(4-chlorophenyl)-4,4-dimethylcyclohex-1-en-1-yl]methyl}piperazin-1-yl)-N-({3-cyano-4-[(tetrahydro-2H-pyran-4-ylmethyl)amino]phenyl}sulfonyl)-2-(1H-indol-4-yloxy)benzamide] | >121.0 |
| CC1(C)CCC(CN2CCN(c3ccc(C(=O)NS(=O)(=O)c4ccc(CCC5CCOCC5)c([N+](=O)[O-])c4)c(Oc4ccc5[nH]ccc5c4)c3)CC2)=C(c2ccc(Cl)cc2)C1 [EXAMPLE 296, 4-(4-{[2-(4-chlorophenyl)-4,4-dimethylcyclohex-1-en-1-yl]methyl}piperazin-1-yl)-2-(1H-indol-5-yloxy)-N-{[3-nitro-4-(2-tetrahydro-2H-pyran-4-ylethyl)phenyl]sulfonyl}benzamide] | >1014.4 |
| O=C(NS(=O)(=O)c1ccc(NCC2CCOCC2)c(S(=O)(=O)C(F)(F)F)c1)c1ccc(N2CCN(Cc3ccccc3-c3ccc(Cl)cc3)CC2)cc1Oc1ccccc1 [Example 163, 4-{4-[(4′-chloro-1,1′-biphenyl-2-yl)methyl]piperazin-1-yl}-2-phenoxy-N-({4-[(tetrahydro-2H-pyran-4-ylmethyl)amino]-3-[(trifluoromethyl)sulfonyl]phenyl}sulfonyl)benzamide] | >117.5 |
| CN(C)CCCNc1ccc(S(=O)(=O)NC(=O)c2ccc(N3CCN(CC4=C(c5ccc(Cl)cc5)CC(C)(C)CC4)CC3)cc2Oc2ccc3[nH]ccc3c2)cc1S(=O)(=O)C(F)(F)Cl [Example 67, N-[(3-{[chloro(difluoro)methyl]sulfonyl}-4-{[3-(dimethylamino)propyl]amino}phenyl)sulfonyl]-4-(4-{[2-(4-chlorophenyl)-4,4-dimethylcyclohex-1-en-1-yl]methyl}piperazin-1-yl)-2-(1H-indol-5-yloxy)benzamide] | >2.3 |
| CC1(C)CCC(CN2CCN(c3ccc(C(=O)NS(=O)(=O)c4ccc(NCC5CCOCC5)c([N+](=O)[O-])c4)c(Oc4cccc5[nH]ncc45)c3)CC2)=C(c2ccc(Cl)cc2)C1 [EXAMPLE 400, 4-(4-{[2-(4-chlorophenyl)-4,4-dimethylcyclohex-1-en-1-yl]methyl}piperazin-1-yl)-2-(1H-indazol-4-yloxy)-N-({3-nitro-4-[(tetrahydro-2H-pyran-4-ylmethyl)amino]phenyl}sulfonyl)benzamide] | >3643.8 |
| O=C(NS(=O)(=O)c1ccc(N2C(=O)C3CCC3C2=O)cc1)c1ccc(N2CCN(Cc3ccccc3-c3ccc(Cl)cc3)CC2)cc1Oc1ccccc1 (stereo not shown) [Example 28, 4-{4-[(4′-chloro-1,1′-biphenyl-2-yl)methyl]piperazin-1-yl}-N-{[4-(2,4-dioxo-3-azabicyclo[3.2.0]hept-3-yl)phenyl]sulfonyl}-2-phenoxybenzamide] | >19.6 |
| CC1(C)CCC(CN2CCN(c3ccc(C(=O)NS(=O)(=O)c4ccc(NN5CCOCC5)c([N+](=O)[O-])c4)c(Oc4cccc5[nH]ccc45)c3)CC2)=C(c2ccc(Cl)cc2)C1 [EXAMPLE 262, 4-(4-{[2-(4-chlorophenyl)-4,4-dimethylcyclohex-1-en-1-yl]methyl}piperazin-1-yl)-2-(1H-indol-4-yloxy)-N-{[4-(morpholin-4-ylamino)-3-nitrophenyl]sulfonyl}benzamide] | 219.9 |
| CC1(C)CCC(CN2CCN(c3ccc(C(=O)NS(=O)(=O)c4ccc(NC5CCN(S(C)(=O)=O)CC5)c([N+](=O)[O-])c4)c(Oc4cccc5[nH]ccc45)c3)CC2)=C(c2ccc(Cl)cc2)C1 [EXAMPLE 338, 4-(4-{[2-(4-chlorophenyl)-4,4-dimethylcyclohex-1-en-1-yl]methyl}piperazin-1-yl)-2-(1H-indol-4-yloxy)-N-[(4-{[1-(methylsulfonyl)piperidin-4-yl]amino}-3-nitrophenyl)sulfonyl]benzamide] | >1637.7 |
| CN1CCC(O)(CNc2ccc(S(=O)(=O)NC(=O)c3ccc(N4CCN(CC5=C(c6ccc(Cl)cc6)CC(C)(C)CC5)CC4)cc3Oc3ccc4[nH]ccc4c3)cc2[N+](=O)[O-])CC1 [EXAMPLE 183, 4-(4-{[2-(4-chlorophenyl)-4,4-dimethylcyclohex-1-en-1-yl]methyl}piperazin-1-yl)-N-[(4-{[(4-hydroxy-1-methylpiperidin-4-yl)methyl]amino}-3-nitrophenyl)sulfonyl]-2-(1H-indol-5-yloxy)benzamide] | 240.5 |
| CC1(C)CCC(CN2CCN(c3ccc(C(=O)NS(=O)(=O)c4cnc(OCCN5CCOCC5)c(C#N)c4)c(Oc4ccc5[nH]ccc5c4)c3)CC2)=C(c2ccc(Cl)cc2)C1 [EXAMPLE 388, 4-(4-{[2-(4-chlorophenyl)-4,4-dimethylcyclohex-1-en-1-yl]methyl}piperazin-1-yl)-N-{[5-cyano-6-(2-morpholin-4-ylethoxy)pyridin-3-yl]sulfonyl}-2-(1H-indol-5-yloxy)benzamide] | 185.1 |
| CC1(C)CCC(CN2CCN(c3ccc(C(=O)NS(=O)(=O)c4cccc(C(=O)NCC5CCOCC5)c4)c(Oc4ccc5[nH]ccc5c4)c3)CC2)=C(c2ccc(Cl)cc2)C1 [EXAMPLE 345, 4-(4-{[2-(4-chlorophenyl)-4,4-dimethylcyclohex-1-en-1-yl]methyl}piperazin-1-yl)-2-(1H-indol-5-yloxy)-N-[(3-{[(tetrahydro-2H-pyran-4-ylmethyl)amino]carbonyl}phenyl)sulfonyl]benzamide] | >575.9 |
| CC1(C)CCC(CN2CCN(c3ccc(C(=O)NS(=O)(=O)c4ccc(NCC5(N)CCOCC5)c([N+](=O)[O-])c4)c(Oc4ccc5[nH]ccc5c4)c3)CC2CO)=C(c2ccc(Cl)cc2)C1 (stereo not shown) [EXAMPLE 237, N-[(4-{[(4-aminotetrahydro-2H-pyran-4-yl)methyl]amino}-3-nitrophenyl)sulfonyl]-4-[4-{[2-(4-chlorophenyl)-4,4-dimethylcyclohex-1-en-1-yl]methyl}-3-(hydroxymethyl)piperazin-1-yl]-2-(1H-indol-5-yloxy)benzamide] | 668.3 |
| CC1(C)CCC(CN2CCN(c3ccc(C(=O)NS(=O)(=O)c4cnc(OCC5(F)CCN(CC#N)CC5)c(Cl)c4)c(Oc4cccc5[nH]ncc45)c3)CC2)=C(c2ccc(Cl)cc2)C1 [EXAMPLE 419, N-[(5-chloro-6-{[1-(cyanomethyl)-4-fluoropiperidin-4-yl]methoxy}pyridin-3-yl)sulfonyl]-4-(4-{[2-(4-chlorophenyl)-4,4-dimethylcyclohex-1-en-1-yl]methyl}piperazin-1-yl)-2-(1H-indazol-4-yloxy)benzamide] | 1071 |
| CN1CCC(Nc2ccc(S(=O)(=O)NC(=O)c3ccc(N4CCN(CC5=C(c6ccc(Cl)cc6)CC(C)(C)CC5)CC4)cc3Oc3cccc4c3CCN4)cc2[N+](=O)[O-])CC1 [EXAMPLE 395, 4-(4-{[2-(4-chlorophenyl)-4,4-dimethylcyclohex-1-en-1-yl]methyl}piperazin-1-yl)-2-(2,3-dihydro-1H-indol-4-yloxy)-N-({4-[(1-methylpiperidin-4-yl)amino]-3-nitrophenyl}sulfonyl)benzamide] | 23.62 |
| CN(C)CC(=O)N1CCO[C@H](COc2ncc(S(=O)(=O)NC(=O)c3ccc(N4CCN(CC5=C(c6ccc(Cl)cc6)CC(C)(C)CC5)CC4)cc3Oc3cccc4[nH]cnc34)cc2Cl)C1 [EXAMPLE 423, 2-(1H-benzimidazol-4-yloxy)-N-[(5-chloro-6-{[(2S)-4-(N,N-dimethylglycyl)morpholin-2-yl]methoxy}pyridin-3-yl)sulfonyl]-4-(4-{[2-(4-chlorophenyl)-4,4-dimethylcyclohex-1-en-1-yl]methyl}piperazin-1-yl)benzamide] | 756.62 |
| O=C(NS(=O)(=O)c1ccc(-n2ncc([N+](=O)[O-])n2)cc1)c1ccc(N2CCN(Cc3ccccc3-c3ccc(Cl)cc3)CC2)cc1Oc1ccccc1 [Example 31, 4-{4-[(4′-chloro-1,1′-biphenyl-2-yl)methyl]piperazin-1-yl}-N-{[4-(4-nitro-2H-1,2,3-triazol-2-yl)phenyl]sulfonyl}-2-phenoxybenzamide] | >18.0 |
